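In this assay, cells in 96-well plates receive the compound at five concentrations for 48 hours. Endpoints are linearly interpolated between the surrounding concentrations. GI50 is the concentration that inhibits growth by half. Definition used: TGI = concentration required for complete inhibition of growth.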
Experiments:
Assay in all cases: NCI tumour cell line growth inhibition, 48 h
K-562 leukemia = system: K-562 leukemia
OVCAR-5 ovarian = system: OVCAR-5 ovarian
SR leukemia = system: SR leukemia
HOP-62 NSCLC = system: HOP-62 NSCLC
LOX IMVI melanoma = system: LOX IMVI melanoma
RPMI-8226 leukemia = system: RPMI-8226 leukemia
786-0 renal = system: 786-0 renal
MOLT-4 leukemia = system: MOLT-4 leukemia
U251 CNS = system: U251 CNS
A498 renal = system: A498 renal
TK-10 renal = system: TK-10 renal
MALME-3M melanoma = system: MALME-3M melanoma
SF-268 CNS = system: SF-268 CNS
KM12 colon = system: KM12 colon
NCI-H460 lung = system: NCI-H460 lung
SF-539 CNS = system: SF-539 CNS
HL-60(TB) leukemia = system: HL-60(TB) leukemia
MDA-MB-435 = system: MDA-MB-435
SNB-19 CNS = system: SNB-19 CNS
PC-3 prostate = system: PC-3 prostate
RXF 393 renal = system: RXF 393 renal
NCI-H226 lung = system: NCI-H226 lung
OVCAR-4 ovarian = system: OVCAR-4 ovarian
HOP-92 NSCLC = system: HOP-92 NSCLC
NCI/ADR-RES ovarian = system: NCI/ADR-RES ovarian
SW-620 colon = system: SW-620 colon
NCI-H23 lung = system: NCI-H23 lung
M14 melanoma = system: M14 melanoma
MDA-MB-231 breast = system: MDA-MB-231 breast
T-47D breast = system: T-47D breast
CAKI-1 renal = system: CAKI-1 renal
IGROV1 ovarian = system: IGROV1 ovarian
HCC-2998 colon = system: HCC-2998 colon
UACC-257 melanoma = system: UACC-257 melanoma
SNB-75 CNS = system: SNB-75 CNS
A549 NSCLC = system: A549 NSCLC
BT-549 breast = system: BT-549 breast
HS 578T breast = system: HS 578T breast
HCT-15 colon = system: HCT-15 colon
SF-295 CNS = system: SF-295 CNS
SN12C renal = system: SN12C renal
HCT-116 colon = system: HCT-116 colon
SK-MEL-5 melanoma = system: SK-MEL-5 melanoma
SK-OV-3 ovarian = system: SK-OV-3 ovarian
CCRF-CEM leukemia = system: CCRF-CEM leukemia
ACHN renal = system: ACHN renal
OVCAR-3 ovarian = system: OVCAR-3 ovarian
OVCAR-8 ovarian = system: OVCAR-8 ovarian
SK-MEL-2 melanoma = system: SK-MEL-2 melanoma
NCI-H522 lung = system: NCI-H522 lung
COLO 205 colon = system: COLO 205 colon
HT29 colon = system: HT29 colon
SK-MEL-28 melanoma = system: SK-MEL-28 melanoma
UO-31 renal = system: UO-31 renal
DU-145 prostate = system: DU-145 prostate
UACC-62 melanoma = system: UACC-62 melanoma
MCF7 breast = system: MCF7 breast

## O=C(Nc1cccc(-n2cc(-c3ccncc3)c(-c3ccc(Cl)c(O)c3)n2)c1)Nc1cccc(C(F)(F)F)c1
K-562 leukemia
  GI50: 1.44 µM
  TGI: > 32.5 µM
OVCAR-5 ovarian
  GI50: 13.7 µM
  TGI: > 32.5 µM
SR leukemia
  GI50: 1.82 µM
  TGI: 20 µM
HOP-62 NSCLC
  GI50: 6.86 µM
  TGI: > 32.5 µM
LOX IMVI melanoma
  GI50: 2.53 µM
  TGI: 9.58 µM
RPMI-8226 leukemia
  GI50: 1.34 µM
  TGI: > 32.5 µM
786-0 renal
  GI50: 4.69 µM
  TGI: > 32.5 µM
MOLT-4 leukemia
  GI50: 1.92 µM
  TGI: > 32.5 µM
U251 CNS
  GI50: 1.59 µM
  TGI: 7.65 µM
A498 renal
  GI50: 2.24 µM
  TGI: > 32.5 µM
TK-10 renal
  GI50: 2.12 µM
  TGI: > 32.5 µM
MALME-3M melanoma
  GI50: 1.81 µM
  TGI: 20.1 µM
SF-268 CNS
  GI50: 1.95 µM
  TGI: 15.8 µM
KM12 colon
  GI50: 1.33 µM
  TGI: > 32.5 µM
NCI-H460 lung
  GI50: 1.18 µM
  TGI: 29 µM
SF-539 CNS
  GI50: 3.54 µM
  TGI: 11.6 µM
HL-60(TB) leukemia
  GI50: 1.45 µM
  TGI: > 32.5 µM
MDA-MB-435
  GI50: 1.49 µM
  TGI: 12.6 µM
SNB-19 CNS
  GI50: 1.91 µM
  TGI: > 32.5 µM
PC-3 prostate
  GI50: 0.948 µM
  TGI: 22.4 µM
RXF 393 renal
  GI50: 3.02 µM
  TGI: 12 µM
NCI-H226 lung
  GI50: 7.35 µM
  TGI: > 32.5 µM
OVCAR-4 ovarian
  GI50: 3.18 µM
  TGI: > 32.5 µM
HOP-92 NSCLC
  GI50: 0.509 µM
  TGI: 2.23 µM
NCI/ADR-RES ovarian
  GI50: 2.14 µM
  TGI: > 32.5 µM
SW-620 colon
  GI50: 3.82 µM
  TGI: > 32.5 µM
NCI-H23 lung
  GI50: 1.9 µM
  TGI: > 32.5 µM
M14 melanoma
  GI50: 1.4 µM
  TGI: 10.8 µM
MDA-MB-231 breast
  GI50: 3.59 µM
  TGI: 26.8 µM
T-47D breast
  GI50: 2.47 µM
  TGI: > 32.5 µM
CAKI-1 renal
  GI50: 1.75 µM
  TGI: > 32.5 µM
IGROV1 ovarian
  GI50: 1.64 µM
  TGI: > 32.5 µM
HCC-2998 colon
  GI50: 7.26 µM
  TGI: > 32.5 µM
UACC-257 melanoma
  GI50: 4.34 µM
  TGI: 19.1 µM
SNB-75 CNS
  GI50: 3.65 µM
  TGI: > 32.5 µM
A549 NSCLC
  GI50: 1.37 µM
  TGI: > 32.5 µM
BT-549 breast
  GI50: 6.51 µM
  TGI: 21.4 µM
HS 578T breast
  GI50: 3.31 µM
  TGI: > 32.5 µM
HCT-15 colon
  GI50: 1.51 µM
  TGI: > 32.5 µM
SF-295 CNS
  GI50: 0.962 µM
  TGI: 4.26 µM
SN12C renal
  GI50: 2.01 µM
  TGI: > 32.5 µM
HCT-116 colon
  GI50: 1.39 µM
  TGI: 8.26 µM
SK-MEL-5 melanoma
  GI50: 1.3 µM
  TGI: 4.71 µM
SK-OV-3 ovarian
  GI50: 4.97 µM
  TGI: > 32.5 µM
CCRF-CEM leukemia
  GI50: 1.4 µM
  TGI: > 32.5 µM
ACHN renal
  GI50: 1.29 µM
  TGI: > 32.5 µM
OVCAR-3 ovarian
  GI50: 1.06 µM
  TGI: 6.13 µM
OVCAR-8 ovarian
  GI50: 1.57 µM
  TGI: > 32.5 µM
SK-MEL-2 melanoma
  GI50: 2.02 µM
  TGI: 10.8 µM
NCI-H522 lung
  GI50: 1.46 µM
  TGI: 14.5 µM
COLO 205 colon
  GI50: 7.9 µM
  TGI: 23.8 µM
HT29 colon
  GI50: 9.82 µM
  TGI: > 32.5 µM
SK-MEL-28 melanoma
  GI50: 4.11 µM
  TGI: > 32.5 µM
UO-31 renal
  GI50: 1.86 µM
  TGI: > 32.5 µM
DU-145 prostate
  GI50: 1.76 µM
  TGI: > 32.5 µM
UACC-62 melanoma
  GI50: 1.65 µM
  TGI: 6.91 µM
MCF7 breast
  GI50: 1.34 µM
  TGI: > 32.5 µM

Source: PubChem BioAssay (NCI)
